Experimental data from US11077080B2, “Use of anti-connexin agents for modulating the therapeutic effect of psychotropic drugs” (Commissariat A L'Energie Atomique Et Aux Energies …, priority 2008, dated 2021).

System: electrical activity of the prefrontal cortex
Test: Quantitative EEG spectral analysis (FFT relative powers) in conscious rats
Type: in vivo, Wistar rats
Conditions: for actual EEG effect: MFA 0.4 mg/kg ip; for increase in the relative powers in the prefrontal cortex: paroxetine 0.5 mg/kg ip alone
Method: A group of 6 conscious Wistar rats was pre-implanted with 6 bipolar bilateral electrodes (2 frontal, 2 anterior hippocampic, 2 posterior hippocampic).
Different treatments were conducted by circular combination of 6 rats by treatment (psychotropic treatment alone, anti-connexin treatment alone, anti-connexin+psychotropic combination treatment). The injection of meclofenamic acid (Sigma) is performed by slow submeningeal injection (80 ng/kg, 4.5 pg/second) or intraperitoneally at different doses. The injection of glycyrrhetinic acid (Sigma) is performed by submeningeal injection (80 ng/kg). The injection of clozapine (Sigma) is performed intraperitoneally (0.2 mg/kg). The injection of paroxetine (Sigma) is performed intraperitoneally (0.5 mg/kg). The injection of modafinil (Cephalon) is performed intraperitoneally (125 mg/kg and 250 mg/kg).
The EEG measurements were performed on the different groups of conscious rats (previously implanted and habituated) by 2-hour recordings after injection. The spectral analysis performed by Fourier transform (FFT) makes it possible to obtain relative powers, Hertz-by-Hertz and second-by-second. The FFT data is then averaged minute-by-minute and associated with the solvent control produced the day prior to the recording under strictly identical experimental conditions. The relative spectral powers of the left and right prefrontal cortices are then averaged by 5-minute periods, averaged by groups of 12 5-minute repetitions and represented hour-by-hour.
The data obtained from the relative quantitative EEG analysis of the effects of the different drugs administered individually (psychotropic alone or anti-connexin agents alone), presented in the examples, were subjected to a statistical analysis by analysis of variance (ANOVA) with three factors: “Frequency” (by Hz), “Time” (first and second hour by 12 averaged 5-minute repetitions) and “Animal” (6 different animals for each treatment). For the combinations of psychotropic and anti-connexin agents presented in the examples, a fourth ANOVA factor was introduced: “Anti-connexin combination”. The significance threshold of the relative power modifications for a given frequency for a psychotropic drug alone with respect to the control (solvent of the psychotropic agent) or a psychotropic drug in combination with an anti-connexin with respect to the psychotropic agent administered alone (in favor of a relative power increase or a decrease) was chosen at a value of P<0.05.

[1] = diazepam 1 mg/kg ip alone, first hour

Cc1ccc(Cl)c(Nc2ccccc2C(=O)O)c1Cl [MFA, Benzoic 2-[(2,6-di-chloro-3-phenyl)amino] acid]
increase in the EEG potential / synchronization of the prefrontal cerebral activity (MFA 80 ng/kg submeningeal, 8-10 Hz, first hour extending to second hour): 140%
actual EEG effect (first hour): no significant modification
actual EEG effect (second hour): slight significant increase
synchronization of the prefrontal cerebral activity at the second hour (MFA central administration (80 ng/kg submeningeal), second hour): decreases
synchronization of the prefrontal cerebral activity at the second hour (MFA peripheral administration (2.45 mg/kg ip), second hour): significant increase in synchronization continues at the second hour

CC(NC(C)(C)C)C(=O)c1cccc(Cl)c1 (stereo not drawn) [bupropion]
increase in power of the 8-10 Hz components (bupropion 0.16 mg/kg ip alone, first hour): around 180%
increase in power of the 8-10 Hz components (bupropion 0.8 mg/kg ip alone, first hour): ~450%
increase in power of the 8-10 Hz components (bupropion 4 mg/kg ip alone, first hour): ~280%

CN1CCN(C2=Nc3cc(Cl)ccc3Nc3ccccc32)CC1 [clozapine]
increase in the EEG potential / synchronization of the prefrontal cerebral activity (clozapine 0.2 mg/kg ip alone, 8-10 Hz, from first hour extending to second hour): 200%

CN1C(=O)CN=C(c2ccccc2)c2cc(Cl)ccc21 [diazepam]
decrease in power of the 4-7 Hz components [1]: around 25%
increase in the power of the 11-30 Hz components [1]: around 120%

CN(C)CCC[C@@]1(c2ccc(F)cc2)OCc2cc(C#N)ccc21 [escitalopram]
increase in power of the 6-8 Hz components (escitalopram 0.8 mg/kg ip alone, first hour): around 150%
increase in power of the 6-8 Hz components (escitalopram 4 mg/kg ip alone, first hour): ~200%

NC(=O)C[S+]([O-])C(c1ccccc1)c1ccccc1 (stereo not drawn) [modafinil]
increase in the EEG potential / synchronization of the prefrontal cerebral activity (modafinil 125 mg/kg ip alone, 2-5 Hz): 120%
increase in the EEG potential / synchronization of the prefrontal cerebral activity (modafinil 250 mg/kg ip alone, 2-5 Hz): 300%

Fc1ccc([C@@H]2CCNC[C@H]2COc2ccc3c(c2)OCO3)cc1 [paroxetine]
increase in the relative powers in the prefrontal cortex (8-10 Hz, first hour): around 200%
increase in the relative powers in the prefrontal cortex (8-10 Hz, second hour): around 300%

CN[C@H]1CC[C@@H](c2ccc(Cl)c(Cl)c2)c2ccccc21 [sertraline]
increase in power of the 7-9 Hz components (sertraline 0.16 mg/kg ip alone, first hour): around 260%
increase in power of the 7-9 Hz components (sertraline 0.8 mg/kg ip alone, first hour): around 260%
increase in power of the same components at the second hour (sertraline 0.8 mg/kg ip alone, second hour): 900%
increase in power of the 7-9 Hz components (sertraline 4 mg/kg ip alone, first hour): ~200%
increase in power of the same components at the second hour (sertraline 4 mg/kg ip alone, second hour): 450%

COc1ccc(C(CN(C)C)C2(O)CCCCC2)cc1 (stereo not drawn) [venlafaxine]
increase in power of the 8-10 Hz components (venlafaxine 0.16 mg/kg ip alone, first hour): around 120%
increase in power of the 8-10 Hz components (venlafaxine 4 mg/kg ip alone, first hour): ~200%
